Experimental data taken from patent US20220387451A1, “AMORPHOUS PHARMACEUTICAL COMPOSITIONS OF ABIRATERONE ACETATE” (SUVEN LIFE SCIENCES LIMITED, priority 2019, published 2022).

Experiments:
[1] = after an oral dose; cited from earlier work
[2] = Excretion after an oral dose of abiraterone acetate (literature); format: in vivo; settings: feces plus urine
Text: Due to highly lipophilic nature and poor aqueous solubility in the gastrointestinal tract, the oral bioavailability of abiraterone acetate is limited. After an oral dose of abiraterone acetate, 88% of the administered drug gets excreted unchanged through feces, and another 5% is excreted in the urine (Ryan C J et al., J ClinOncol. 2010; 28(9):1481-1488). Therefore, >90% of the administered drug gets excreted and is not used for its intended treatment. […] As a result, Zytiga® must be taken on an empty stomach with water at least […] a meal. There is a need for developing new pharmaceutical compositions for abiraterone acetate that improve bioavailability in the fasted state to in turn reduce the food effect and overall variability in absorption.

In the case of `CC(=O)O[C@H]1CC[C@@]2(C)C(=CC[C@@H]3[C@@H]2CC[C@]2(C)C(c4cccnc4)=CC[C@@H]32)C1` [Abiraterone acetate], the “administered drug excreted in the urine” value [1] is given as 5%, the “administered drug excreted unchanged through feces” value [1] is given as 88% and the administered drug excreted [2] is given as over 90%.
